Test results taken from patent US8648068B2, “Heterocycloalkyl-containing thienopyrimidines for pharmaceutical compositions” (Boehringer Ingelheim International GmbH, priority 2010, dated 2014).
Counter-ions that a name gives are not always drawn.

Molecular target: T1, human Mnk2a (Homo sapiens, UniProt Q9HBH9)
T1 construct: made in house; host or cells: E. coli BL21 (vector pGEX-4T1)
Assay: Mnk2a in vitro kinase assay (indirect fluorescence polarization)
Type: biochemical
Conditions: GST-Mnk2a pre-activated with ERK2, 20 μM ATP, 30 μM substrate peptide; read-out: MNK2 IC50
Description: Inhibitory potency of compounds against Mnk1, Mnk2a and other kinases was assessed with assays based on a format known to those skilled in the art as the indirect (competitive) fluorescence polarization. The assay detection system comprises a small fluorophore-labeled phospho-peptide (termed ligand) bound to a phospho-specific antibody. The product generated by the kinase reaction competes with the ligand for antibody binding. Based on the larger molecular volume of the bound ligand, which results in a lower rotation rate in solution, its emitted light has a higher degree of polarization than the one from the free ligand.
As a source of enzyme, human Mnk1 and human Mnk2a were expressed as GST fusion proteins in E. coli, purified to >80% homogeneity by glutathione affinity chromatography and activated in vitro with pre-activated ERK2. In brief, the open reading frames of human Mnk1 and Mnk2a were amplified from cDNA using the forward/reverse primer pairs
(utilized restriction sites underlined), respectively, and cloned into the BamHI and SalI sites of the vector pGEX-4T1 (Amersham, Sweden, cat. no. 27-4580-01). These constructs allow prokaryotic expression of Mnk1 or Mnk2a as fusion protein with a N-terminal glutathione S-transferase (GST) tag, referred to as GST-Mnk1 or GST-Mnk2a. The following expression and purification procedure was identical for GST-Mnk1 and GST-Mnk2a, referring in general to GST-Mnk, when not distinguishing between the two isoforms. Expression of GST-Mnk was in E. coli BL21 (Merck Biosciences, Germany, cat. no. 69449). Cells were grown in LB-Bouillon (Merck, Germany, cat. no. 1.10285) supplemented with 100 μg/ml ampicillin (Sigma, Germany, cat. no. A9518) at 37° C. When the culture had reached a density corresponding to an A600 of 0.8, an equal volume of ice cold LB/ampicillin was added, the culture transferred to 25° C. and induced for 4 h with 1 mM isopropyl thiogalactoside (IPTG, Roth, Germany, cat. no. 2316.4). Cells harvested by centrifugation were resuspended in 10 ml lysis buffer (50 mM tris(hydroxymethyl)aminomethane hydrochloride (Tris/HCl, Sigma, Germany, cat. no. T5941) pH 7.5, 300 mM sodium chloride (NaCl, Sigma, Germany, cat. no. S7653), 5% (w/v) glycerol (Sigma, Germany, cat. no. G5516), 3 mM DTT dithiotreitol (DTT, Sigma, Germany, cat. no. D9779)) per gram wet weight cell pellet. Lysates were prepared by disruption of cells with a sonifier and subsequent clearing by centrifugation at 38000 g for 45 min at 4° C.
The lysate was applied to a GSTPrep FF 16/10 column (Amersham, Sweden, cat. no. 17-5234-01) equilibrated with lysis buffer. Removal of unbound material was with 3 column volumes (CV) lysis buffer. Elution was with 2 CV of elution buffer (50 mM Tris/HCl pH 7.5, 300 mM NaCl, 5% (w/v) glycerol, 20 mM glutathione (Sigma, Germany, cat. no. G4251)). Peak fractions were pooled and the protein transferred into storage buffer (50 mM Tris/HCl pH 7.5, 200 mM NaCl, 0.1 mM ethylene glycol-bis(2-aminoethylether)-N,N,N′,N′-tetraacetic acid (EGTA, Aldrich, Germany, cat. no. 23, 453-2), 1 mM DTT, 10% (w/v) glycerol, 0.5 M sucrose (Sigma, Germany, cat. no. SO389) by gel filtration on a PD10 desalting column (Amersham, Sweden, cat. no. 17-0851-01). Aliquots were shock frozen in liquid nitrogen and stored at −80° C.
Activation of Mnk1 and Mnk2a was at a concentration of 2.5 μM of either purified GST-Mnk1 or GST-Mnk2a by incubation with 150 nM pre-activated NHis-ERK2 (see ERK2 assay for preparation) and 50 μM adenosine triphosphate (ATP, Sigma, cat. no. A2699) in a buffer comprising 20 mM N-(2-hydroxyethyl)piperazine-N′-(2-ethanesulfonic acid) (HEPES, Fluka, Germany, cat. no 54459)/potassium hydroxide (KOH, Roth, Germany, cat. no 6751.1) pH 7.4, 10 mM magnesium chloride (MgCl2, Sigma, Germany, cat. no. M2670), 0.25 mM DTT, 0.05% (w/v) polyoxyethylene 20 stearylether (Brij 78, Sigma, Germany, cat. no. P4019) (HMDB buffer) for 45 min at 30° C. […]

T1 sequence (Q9HBH9 whole entry): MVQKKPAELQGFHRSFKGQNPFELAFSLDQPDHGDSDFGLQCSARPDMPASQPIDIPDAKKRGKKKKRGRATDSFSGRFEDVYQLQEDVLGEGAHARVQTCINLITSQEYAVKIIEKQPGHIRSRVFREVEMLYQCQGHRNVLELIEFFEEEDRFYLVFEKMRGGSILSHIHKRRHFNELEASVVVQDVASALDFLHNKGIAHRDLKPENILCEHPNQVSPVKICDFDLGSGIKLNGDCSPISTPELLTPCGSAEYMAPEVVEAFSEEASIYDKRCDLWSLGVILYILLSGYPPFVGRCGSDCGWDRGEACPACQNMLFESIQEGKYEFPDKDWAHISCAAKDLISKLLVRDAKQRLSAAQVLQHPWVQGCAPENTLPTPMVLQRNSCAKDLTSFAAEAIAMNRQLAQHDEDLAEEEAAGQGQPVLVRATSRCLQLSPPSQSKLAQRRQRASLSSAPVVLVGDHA

`Cc1c(C(=O)NC2CCN(C)CC2)sc2ncnc(Nc3ccc(F)cc3O[C@@H]3CCCOC3)c12` [Example 259, 4-{4-Fluoro-2-[(R)-(tetrahydro-pyran-3-yl)oxy]-phenylamino}-5-methyl-thieno[2,3-d]pyrimidine-6-carboxylic acid (1-methyl-piperidin-4-yl)-amide] and `Cc1c(C(=O)NC2CCCNCC2)sc2ncnc(Nc3ccc(F)cc3O[C@H]3CCOC3)c12` (stereo partly drawn) [Example 273, 4-{4-Fluoro-2-[(S)-(tetrahydro-furan-3-yl)oxy]-phenylamino}-5-methyl-thieno[2,3-d]pyrimidine-6-carboxylic acid azepan-4-ylamide trifluoroacetate] are within 1.5-fold of each other in IC50: 38 nM for the first, 49 nM for the second.

Compared with `CC(=O)N1CC[C@@H](Oc2cc(F)ccc2Nc2ncnc3sc(C(N)=O)c(C)c23)C1` [Example 98, 4-[2-((R)-1-Acetyl-pyrrolidin-3-yloxy)-4-fluoro-phenylamino]-5-methyl-thieno[2,3-d]pyrimidine-6-carboxylic acid amide], `CC(=O)N1CC[C@H](Oc2cc(F)ccc2Nc2ncnc3sc(C(N)=O)c(C)c23)C1` [Example 96, 4-[2-((S)-1-Acetyl-pyrrolidin-3-yloxy)-4-fluoro-phenylamino]-5-methyl-thieno[2,3-d]pyrimidine-6-carboxylic acid amide] is 12-fold higher in IC50: 94 nM for the first, 1100 nM for the second. The first is the more potent here.

`CSCCCNC(=O)c1sc2ncnc(Nc3ccc(F)cc3OC3CCOCC3)c2c1C` [Example 237] and `Cc1c(C(=O)NCCO)sc2ncnc(Nc3ccc(F)cc3OC3CCOCC3)c12` [Example 211] are within 1.5-fold of each other in IC50: 36 nM for the first, 29 nM for the second.

`Cc1c(C(=O)NCCc2ccncc2)sc2ncnc(Nc3ccc(F)cc3OC3CCOCC3)c12` [Example 208] and `Cc1c(C(=O)NCCc2cnn(C)c2)sc2ncnc(Nc3ccc(F)cc3OC3CCOCC3)c12` [Example 171] are within 1.5-fold of each other in IC50: 59 nM for the first, 41 nM for the second.

Going from `CCC(CC)CNC(=O)c1sc2ncnc(Nc3ccc(F)cc3OC3CCCNC3)c2c1C` (stereo not drawn) [Example 26] to `CNC(=O)c1sc2ncnc(Nc3ccc(F)cc3O[C@H]3CCCNC3)c2c1C` [Example 11, 4-[4-Fluoro-2-((S)-piperidin-3-yloxy)-phenylamino]-5-methyl-thieno[2,3-d]pyrimidine-6-carboxylic acid methylamide], the IC50 falls from 60 nM to 39 nM (1.5-fold).

`Cc1c(C(=O)NCCCCCN(C)C)sc2ncnc(Nc3ccc(F)cc3OC3CCOCC3)c12` [Example 168] and `Cc1c(C(=O)NCCCN(C)CCN(C)C)sc2ncnc(Nc3ccc(F)cc3OC3CCOCC3)c12` [Example 126] are within 1.5-fold of each other in IC50: 23 nM for the first, 26 nM for the second.

`Cc1c(C(=O)NCc2ccc3sccc3c2)sc2ncnc(Nc3ccc(F)cc3OC3CCCNC3)c12` (stereo not drawn) [Example 61] and `Cc1cccc(CNC(=O)c2sc3ncnc(Nc4ccc(F)cc4OC4CCCNC4)c3c2C)c1` (stereo not drawn) [Example 33] are within 1.5-fold of each other in IC50: 38 nM for the first, 56 nM for the second.

First: Cc1c(C(=O)N[C@H]2CC[C@@H](O)CC2)sc2ncnc(Nc3ccc(F)cc3OC3CCOCC3)c12 [Example 191]
Second: Cc1c(C(=O)NO)sc2ncnc(Nc3ccc(F)cc3OC3CCOCC3)c12 [Example 244]
The IC50 of the first is 2.5-fold higher: 47 nM for the first, 19 nM for the second. The second is the more potent here.

`Cc1c(C(=O)NCCOCCO)sc2ncnc(Nc3ccc(F)cc3OC3CCOCC3)c12` [Example 210] and `CONC(=O)c1sc2ncnc(Nc3ccc(F)cc3OC3CCOCC3)c2c1C` [Example 239] are within 1.5-fold of each other in IC50: 60 nM for the first, 41 nM for the second.

Compared with `Cc1c(C(=O)NCCOC(F)(F)F)sc2ncnc(Nc3ccc(F)cc3OC3CCCNC3)c12` (stereo not drawn) [Example 38], `Cc1c(C(=O)NCC2CN(C)CCO2)sc2ncnc(Nc3ccc(F)cc3OC3CCCNC3)c12` (stereo not drawn) [Example 55] is 2-fold lower in IC50: 100 nM for the first, 51 nM for the second.

`Cc1c(C(=O)NC2(CO)CC2)sc2ncnc(Nc3ccc(F)cc3OC3CCOCC3)c12` [Example 194] and `Cc1c(C(=O)NC(C)(C)CO)sc2ncnc(Nc3ccc(F)cc3OC3CCOCC3)c12` [Example 226] are within 1.5-fold of each other in IC50: 63 nM for the first, 55 nM for the second.

Compared with `Cc1c(C(=O)NCc2ncc[nH]2)sc2ncnc(Nc3ccc(F)cc3OC3CCOCC3)c12` [Example 231], `Cc1c(C(=O)NCc2cc[nH]n2)sc2ncnc(Nc3ccc(F)cc3OC3CCOCC3)c12` [Example 182] is 1.7-fold higher in IC50: 18 nM for the first, 30 nM for the second.

Compared with `Cc1c(C(=O)NCCO)sc2ncnc(Nc3cccnc3O[C@@H]3CCCOC3)c12` [Example 260, 5-Methyl-4-{2-[(R)-(tetrahydro-pyran-3-yl)oxy]-pyridin-3-ylamino}-thieno[2,3-d]pyrimidine-6-carboxylic acid (2-hydroxy-ethyl)-amide], `CSCCCNC(=O)c1sc2ncnc(Nc3cccnc3OC3CCOCC3)c2c1C` [Example 279] is 2-fold higher in IC50: 39 nM for the first, 77 nM for the second.

Compared with `COCC(C)NC(=O)c1sc2ncnc(Nc3ccc(F)cc3OC3CCOCC3)c2c1C` (stereo not drawn) [Example 163], `Cc1c(C(=O)N[C@H](C)C(=O)O)sc2ncnc(Nc3ccc(F)cc3OC3CCOCC3)c12` [Example 147] is 4-fold lower in IC50: 60 nM for the first, 15 nM for the second. The second is the more potent here.

Compared with `Cc1c(C(=O)NCC(=O)c2ccccc2)sc2ncnc(Nc3ccc(F)cc3OC3CCCNC3)c12` (stereo not drawn) [Example 42], `Cc1c(C(=O)NCC(C)(C)O)sc2ncnc(Nc3ccc(F)cc3OC3CCOCC3)c12` [Example 190] is 1.6-fold higher in IC50: 41 nM for the first, 66 nM for the second.

`Cc1c(C(=O)NCCCN(C)C)sc2ncnc(Nc3ccc(F)cc3O[C@H]3CCOC3)c12` [Example 108, 4-{4-Fluoro-2-[(S)-(tetrahydro-furan-3-yl)oxy]-phenylamino}-5-methyl-thieno[2,3-d]pyrimidine-6-carboxylic acid (3-dimethylamino-propyl)-amide] and `Cc1c(C(=O)NCCCN(C)C)sc2ncnc(Nc3ccc(F)cc3O[C@@H]3CCCOC3)c12` [Example 88, 4-{4-Fluoro-2-[(R)-(tetrahydro-pyran-3-yl)oxy]-phenylamino}-5-methyl-thieno[2,3-d]pyrimidine-6-carboxylic acid (3-dimethylamino-propyl)-amide] are within 1.5-fold of each other in IC50: 26 nM for the first, 22 nM for the second.

Going from `Cc1c(C(=O)NS(C)(=O)=O)sc2ncnc(Nc3ccc(F)cc3OC3CCOCC3)c12` [Example 235] to `CCC(CO)NC(=O)c1sc2ncnc(Nc3ccc(F)cc3OC3CCOCC3)c2c1C` (stereo not drawn) [Example 224], the IC50 rises from 12 nM to 63 nM (5.2-fold). The first is the more potent here.

Going from `CNC(=O)c1sc2ncnc(Nc3ccc(F)cc3OC3CCN(S(C)(=O)=O)C3)c2c1C` (stereo not drawn) [Example 90] to `Cc1c(C(=O)NCCCN(C)C)sc2ncnc(Nc3ccc(F)cc3O[C@@H]3CCCN(S(C)(=O)=O)C3)c12` [Example 85], the IC50 falls from 14 nM to 7 nM (2-fold). The second is the more potent here.

Compared with `COCCN1CCC[C@@H](Oc2cc(F)ccc2Nc2ncnc3sc(C(N)=O)c(C)c23)C1` [Example 75], `Cc1c(C(N)=O)sc2ncnc(Nc3ccc(F)cc3O[C@H]3CCCN(CC(F)(F)F)C3)c12` [Example 5] is 5-fold higher in IC50: 22 nM for the first, 110 nM for the second. The first is the more potent here.

First: Cc1c(C(=O)N2CCCCC2CN2CCOCC2)sc2ncnc(Nc3ccc(F)cc3OC3CCOCC3)c12 (stereo not drawn) [Example 252]
Second: Cc1c(C(=O)NCC#CCN)sc2ncnc(Nc3ccc(F)cc3OC3CCOCC3)c12 [Example 134]
The IC50 of the first is 530-fold higher: 8420 nM for the first, 16 nM for the second.

Going from `Cc1c(C(=O)NCC#CCN(C)C)sc2ncnc(Nc3ccc(F)cc3O[C@@H]3CCOC3)c12` [Example 274] to `Cc1c(C(=O)NC2CCCNCC2)sc2ncnc(Nc3ccc(F)cc3OC3CCOC3)c12` (stereo in doubt) [Compound 277, 4-{4-Fluoro-2-[(R)-(tetrahydro-furan-3-yl)oxy]-phenylamino}-5-methyl-thieno[2,3-d]pyrimidine-6-carboxylic acid azepan-4-ylamide trifluoroacetate], the IC50 rises from 19 nM to 59 nM (3.1-fold). The first is the more potent here.
